# “And” between values parts separate entries of the source, which are not always exact repeats. Equal values may be shown once. Read-outs that look alike come from different tables or passages of the source.
# How the values were obtained:
# [1] = tested on: S. aureus MSSA (26 strains); assay: MIC50/MIC90 micro-broth dilution, MSSA strains; details: Staphylococcus aureus, MSSA
# [2] = tested on: Staphylococcus aureus ATCC 43300 MRSA; assay: Forced evolution of resistance, 20 days serial passage and drug-free passages; type: cell-based; details: for MIC: Staphylococcus aureus
# Protocol: The collaborator supplied sample as dry material. A stock solution at 10 mg/mL in neat DMSO was prepared.
# The tested bacteria was Staphylococcus aureus ATCC 43300 MRSA (ID GP_020:02).
# The mid log Staphylococcus aureus (ATCC 43300) growth culture was serially diluted and plated on a solid Tryptic Soy Agar (TSA) plates in duplicates and incubated at 37° C. overnight to determine viable colony count.
# Staphylococcus aureus (ATCC 43300) was cultured in CaMHB at 37° C. overnight, then diluted 40-fold and incubated at 37° C. for a further 2-3 h. […] The plate was covered and incubated at 37° C. for 20 h.
# Plate well with the highest drug concentration that permitted growth was then diluted. Despite plates were read by eye, reading at OD600 on the Epoch microplate spectrophotometer was used to adjust growth density of each well (it was approximately 1:1000). Then, 100 μL of the bacteria diluted was added to the new MIC plate. The OD600 was used to calculate the dilution of cells to a density of 10^6 CFU/mL. Bacteria were diluted in CaMHB and 100 μL was added to each well of the next replicate passage. The final well volume was 200 μL with a cell density of 5×10^5 CFU/mL. Each replicate (row) was assess as different strain, for this reason the dilution was done for each replicate.
# Once prepared, the plate was covered and incubated at 37° C. overnight. Plate reading, compound preparation and bacterial preparation were repeated from Day 2 to Day 20.
# Depending on the MIC of the day before, CBD tested concentrations were established.
# Depending on the MIC of the day before, CBD and daptomycin tested concentrations were established to ensure at least three concentrations above, and three concentrations below MIC, based on the previous MIC results. Compounds were prepared in Protein LoBind Eppendorf 1.5 mL safelock tubes, diluting 320 μg/mL stock in DMSO in CaMHB to achieve two-fold the desired testing concentrations. The 100 μL of the selected concentration were added to each well (See FIG. 1). […] It was incubated at 37° C. overnight. Next day the same procedure was repeated.
# Following 20 days of passaging in the presence of CBD and daptomycin, each replicate was passaged for 4 days in drug-free media to assess the stability of any induced resistance.
# Day 20 plate was read and the same bacterial preparation methodology was followed. Same concentrations used in day 20 for CBD were used for the 4 days drug free passages. […] These concentrations were used for the 4 days drug free passages. Column 11 was used as the drug-free passage well, and column 12 as a negative growth control with 200 μL uninoculated media in each well. Diluted bacteria were added to the plate, one replicate per row, 100 μL per well. The final well volume was 200 μL with a cell density of 5×10^5 CFU/mL in columns 1-11, and CBD concentration range from 16-0.03 μg/mL in columns 1-10 (FIG. 2).
# Subsequent drug-free passage plates were prepared in the same manner, except each replicate bacteria was passaged from column 11, the drug-free growth control well.
# Alongside the test plate, a culture of S. aureus was passaged for 24 days without CBD, to establish a baseline for non-selective mutations in the growth conditions described.
# Six wells were used as a positive growth controls, and six as negative growth controls with uninoculated media.
# Subsequent passages were inoculated from well H7. The bacterial growth in H7 was resuspended by pipetting, then plates were read for optical density by spectrophotometer (Biotek Epoch) at 600 nm (OD600). The OD600 was used to calculate the dilution of cells to a density of 10^6 CFU/mL. Bacteria were diluted in CaMHB and 50 μL was added to each well of the next passage.
# [3] = tested on: Enterococcus faecalis ATCC 29212; assay: Expanded panel MIC micro-broth dilution; type: cell-based; details: ATCC29212, CaMHB, read-out: Cannabidiol MIC (Batch 1)
# Protocol: (§1) The collaborator supplied sample as dry material. Angela Kavanagh prepared a stock solution at 10 mg/mL in neat DMSO. The highest concentration tested in the assay was 64 μg/mL for bacteria and 128 μg/mL for fungi. 2% DMSO was the final concentration using 1/20 dilution to achieve these concentrations.
# (§2) The compound was serially diluted in Cation-adjusted Mueller Hinton Broth (CaMHB; BD, Cat. No. 212322) two-fold across the wells of polystyrene (PS) 96-well plates (Corning; Cat. No. 3370), plated in duplicate. All plates had flat bottom wells and were covered with low-evaporation lids.
# (§3) Bacteria were cultured in CaMHB at 37° C. overnight, then diluted 40-fold and incubated at 37° C. for a further 2-3 h. The resultant mid-log phase cultures were diluted in CaMHB and added to each well of the compound-containing 96-well plates to give a final cell density of 5×10^5 CFU/mL, and a final compound concentration range of 0.03-64 μg/mL. The plates were covered and incubated at 37° C. for 20 h.
# (§4) Inhibition of bacterial growth was determined visually, where the MIC was recorded as the lowest compound concentration with no visible growth.
# [4] = tested on: Staphylococcus epidermidis ATCC 12228; assay: Expanded panel MIC micro-broth dilution; type: cell-based; details: CaMHB
# Protocol: as §1, §2, §3, §4
# [5] = tested on: Streptococcus pneumoniae ATCC 700677; assay: Expanded panel MIC micro-broth dilution; type: cell-based; details: ATCC700677, CaMHB, read-out: Cannabidiol MIC (Batch 1)
# Protocol: as §1, §2, §3, §4
# [6] = tested on: Streptococcus pyogenes ATCC 12344; assay: Expanded panel MIC micro-broth dilution; type: cell-based; details: ATCC12344, CaMHB, read-out: Cannabidiol MIC (Batch 1)
# Protocol: as §1, §2, §3, §4
# [7] = tested on: Streptococcus pneumoniae ATCC 33400; assay: Expanded panel MIC micro-broth dilution; type: cell-based; details: CaMHB
# Protocol: as §1, §2, §3, §4
# [8] = tested on: Bacillus cereus ATCC 11778; assay: Expanded panel MIC micro-broth dilution; type: cell-based; details: CaMHB
# Protocol: as §1, §2, §3, §4
# Kocuria rosea ATCC 31251 = assay: Expanded panel MIC micro-broth dilution; type: cell-based; details: CaMHB
# Protocol: as §1, §2, §3, §4
# [9] = tested on: Staphylococcus capitis ATCC 27840; assay: Expanded panel MIC micro-broth dilution; type: cell-based; details: CaMHB
# Protocol: as §1, §2, §3, §4
# [10] = tested on: Staphylococcus epidermidis NRS 60; assay: Expanded panel MIC micro-broth dilution; type: cell-based; details: CaMHB
# Protocol: as §1, §2, §3, §4
# [11] = tested on: Enterococcus faecium ATCC 35667; assay: Expanded panel MIC micro-broth dilution; type: cell-based; details: CaMHB
# Protocol: as §1, §2, §3, §4
# [12] = tested on: Staphylococcus aureus ATCC 43300; assay: Expanded panel MIC micro-broth dilution; type: cell-based; details: ATCC43300, CaMHB, read-out: Cannabidiol MIC (Batch 1)
# Protocol: as §1, §2, §3, §4
# [13] = tested on: Bacillus subtilis ATCC 6633; assay: Expanded panel MIC micro-broth dilution; type: cell-based; details: CaMHB
# Protocol: as §1, §2, §3, §4
# [14] = tested on: Staphylococcus aureus ATCC 29213; assay: Expanded panel MIC micro-broth dilution; type: cell-based; details: CaMHB
# Protocol: as §1, §2, §3, §4
# [15] = tested on: Staphylococcus aureus NARSA, VRS1; assay: Expanded panel MIC micro-broth dilution; type: cell-based; details: CaMHB
# Protocol: as §1, §2, §3, §4
# [16] = tested on: Staphylococcus aureus ATCC 25923; assay: Expanded panel MIC micro-broth dilution; type: cell-based; details: CaMHB
# Protocol: as §1, §2, §3, §4
# [17] = tested on: Staphylococcus aureus ATCC 700699, NRS 1; assay: Expanded panel MIC micro-broth dilution; type: cell-based; details: CaMHB, read-out: Cannabidiol MIC (Batch 1)
# Protocol: as §1, §2, §3, §4
# [18] = tested on: Staphylococcus warneri ATCC 27836; assay: Expanded panel MIC micro-broth dilution; type: cell-based; details: CaMHB
# Protocol: as §1, §2, §3, §4
# [19] = tested on: Staphylococcus aureus ATCC 33591; assay: Expanded panel MIC micro-broth dilution; type: cell-based; details: CaMHB
# Protocol: as §1, §2, §3, §4
# [20] = tested on: Bacillus megaterium ATCC 13632; assay: Expanded panel MIC micro-broth dilution; type: cell-based; details: CaMHB
# Protocol: as §1, §2, §3, §4
# [21] = tested on: Staphylococcus warneri Clinical isolate; assay: Expanded panel MIC micro-broth dilution; type: cell-based; details: CaMHB
# Protocol: as §1, §2, §3, §4
# [22] = tested on: Staphylococcus epidermidis ATCC 14990; assay: Expanded panel MIC micro-broth dilution; type: cell-based; details: CaMHB
# Protocol: as §1, §2, §3, §4
structure (smiles),measurement,setting,value
"C=C(C)C1CCC(C)=CC1c1c(O)cc(CCCCC)cc1O (stereo not drawn) [Cannabidiol, 2-[3-methyl-6-(1-methylethenyl)-2-cyclohexen-1-yl]-5-pentyl-1,3-benzenediol]",MIC50,[1],2 µg/mL
same,MIC90,[1],2 µg/mL
same,MIC,"[2]; 216 h, read-out: measured MIC on Day 9",1 µg/mL
same,MIC,"[2]; 312 h, read-out: MIC of replicate 1 at day 13",> 7 µg/mL
same,MIC,"[2]; 432 h, read-out: MIC of replicate 1 by day 18",> 128 µg/mL
same,MIC,"[2]; 480 h, read-out: MIC through the 20 days of assay",2 to 4 µg/mL
same,MIC,[2]; read-out: MIC of replicates 2 and 8 on Days 20 and 21,6 to 16 µg/mL
same,MIC of replicate 1 before the increase,[2]; replicate 1,3.5 µg/mL
same,MIC,[3],2 µg/mL
same,Cannabidiol MIC (Batch 1),[4]; Staphylococcus epidermidis ATCC 12228,2 µg/mL
same,MIC,"[4]; Staphylococcus epidermidis, ATCC12228, Staphylococcus epidermidis ATCC 12228, read-out: Cannabidiol MIC (Batch 1)",1 µg/mL
same,MIC,[5],4 µg/mL
same,MIC,[6],1 µg/mL
same,Cannabidiol MIC (Batch 1),[7]; Streptococcus pneumoniae ATCC 33400,2 µg/mL
same,MIC,"[7]; Streptococcus pneumoniae, ATCC33400, Streptococcus pneumoniae ATCC 33400, read-out: Cannabidiol MIC (Batch 1)",1 µg/mL
same,Cannabidiol MIC (Batch 1),[8]; Bacillus cereus ATCC 11778,2 µg/mL
same,MIC,"[8]; Bacillus cereus, ATCC11778, Bacillus cereus ATCC 11778, read-out: Cannabidiol MIC (Batch 1)",1 µg/mL
same,Cannabidiol MIC (Batch 1),Kocuria rosea ATCC 31251; Kocuria rosea ATCC 31251,2 µg/mL
same,MIC,"Kocuria rosea ATCC 31251; Kocuria rosea, ATCC31251, Kocuria rosea ATCC 31251, read-out: Cannabidiol MIC (Batch 1)",1 µg/mL
same,Cannabidiol MIC (Batch 1),[9]; Staphylococcus capitis ATCC 27840,2 µg/mL
same,MIC,"[9]; Staphylococcus capitis, ATCC27840, Staphylococcus capitis ATCC 27840, read-out: Cannabidiol MIC (Batch 1)",1 µg/mL
same,Cannabidiol MIC (Batch 1),[10]; Staphylococcus epidermidis NRS 60,4 µg/mL and 8 µg/mL
same,MIC,"[10]; Staphylococcus epidermidis, NRS60, Staphylococcus epidermidis NRS 60, read-out: Cannabidiol MIC (Batch 1)",4 to 8 µg/mL
same,Cannabidiol MIC (Batch 1),[11]; Enterococcus faecium ATCC 35667,1 µg/mL
same,MIC,"[11]; Enterococcus faecium, ATCC35667, Enterococcus faecium ATCC 35667, read-out: Cannabidiol MIC (Batch 1)",0.5 µg/mL
same,MIC,[12],1 µg/mL
same,Cannabidiol MIC (Batch 1),[13]; Bacillus subtilis ATCC 6633,2 µg/mL
same,MIC,"[13]; Bacillus subtilis, ATCC6633, Bacillus subtilis ATCC 6633, read-out: Cannabidiol MIC (Batch 1)",1 µg/mL
same,Cannabidiol MIC (Batch 1),[14]; Staphylococcus aureus ATCC 29213,2 µg/mL
same,MIC,"[14]; Staphylococcus aureus, ATCC29213, Staphylococcus aureus ATCC 29213, read-out: Cannabidiol MIC (Batch 1)",1 µg/mL
same,Cannabidiol MIC (Batch 1),[15],2 µg/mL
same,MIC,"[15]; Staphylococcus aureus, read-out: Cannabidiol MIC (Batch 1)",1 µg/mL
same,Cannabidiol MIC (Batch 1),[16]; Staphylococcus aureus ATCC 25923,2 µg/mL
same,MIC,"[16]; Staphylococcus aureus, ATCC25923, Staphylococcus aureus ATCC 25923, read-out: Cannabidiol MIC (Batch 1)",1 µg/mL
same,MIC,[17],4 µg/mL
same,Cannabidiol MIC (Batch 1),[18]; Staphylococcus warneri ATCC 27836,4 µg/mL
same,MIC,"[18]; Staphylococcus warneri, ATCC27836, Staphylococcus warneri ATCC 27836, read-out: Cannabidiol MIC (Batch 1)",2 µg/mL
same,Cannabidiol MIC (Batch 1),[19]; Staphylococcus aureus ATCC 33591,2 µg/mL
same,MIC,"[19]; Staphylococcus aureus, ATCC33591, Staphylococcus aureus ATCC 33591, read-out: Cannabidiol MIC (Batch 1)",1 µg/mL
same,Cannabidiol MIC (Batch 1),[20]; Bacillus megaterium ATCC 13632,2 µg/mL
same,MIC,"[20]; Priestia megaterium, ATCC13632, Bacillus megaterium ATCC 13632, read-out: Cannabidiol MIC (Batch 1)",1 µg/mL
same,Cannabidiol MIC (Batch 1),[21],4 µg/mL
same,MIC,"[21]; Staphylococcus warneri, read-out: Cannabidiol MIC (Batch 1)",2 µg/mL
same,Cannabidiol MIC (Batch 1),[22]; Staphylococcus epidermidis ATCC 14990,2 µg/mL
same,MIC,"[22]; Staphylococcus epidermidis, ATCC14990, Staphylococcus epidermidis ATCC 14990, read-out: Cannabidiol MIC (Batch 1)",1 µg/mL
